What was measured:
[1] = test system: hippocampal CA1/CA3 nerve cells of KA-treated rats; assay: NeuN staining of hippocampal CA1/CA3 nerve cells in KA-treated rats; format: in vivo; settings: Cynarin 10 mg/kg p.o. once daily for 7 days before KA 15 mg/kg i.p.; NeuN staining 72 h after KA
Procedure: In this example, rats were divided into four groups: a control group, a KA-only (15 mg/kg) treatment group, a Cynarin (CYN) (10 mg/kg) plus KA (15 mg/kg) treatment group, and a triple treatment group consisting of Cynarin (CYN) (5 mg/kg), Carbamazepine (CBZ) (50 mg/kg), and KA (15 mg/kg). During the experiment, except for the control group, rats in each group were administered Cynarin orally once daily for seven days. Then, on the eighth day, all experimental groups, except the control group, were further treated by intraperitoneal injection of KA (15 mg/kg).
FIGS. 3A and 3B show the effect of Cynarin (CYN) pretreatment on kainic acid (KA)-induced nerve cell death in the hippocampus of rats. (3A) Representative images of Neuronal nuclei (NeuN) staining at 72 h after KA i.p. injection. (3B) Semiquantitative analysis of NeuN-positive cells in the CA1 and CA3 regions. Data are mean±SEM (n=5 per group). ***, p<0.001 vs. control group. #, p<0.001 vs. KA group.

[2] = test system: KA-induced epilepsy model in rats; assay: kainic acid (KA)-induced seizure behavior in rats, Racine scale scoring (seizure score and latency); format: in vivo, Sprague-Dawley rats
Text: Experimental animals are as follows. Male Sprague-Dawley rats (weight 200-250 g) purchased from BioLASCO in Taipei were housed in the Animal Center of Fu Jen Catholic University and maintained in a 12-h light/dark cycle with food and water available ad libitum. Rats were allowed to acclimate to laboratory conditions for at least 3 days before the start of the experiment.
The experimental design of the present invention is as follows. Cynarin pretreatment reduces epileptic behavior in animals induced by kainic acid (KA). […] Behavioral scoring was based on the Racine scale (1972), see FIG. 1.
Experimental grouping is as follows. […]
The experimental protocol for Racine scale behavioral scoring is as follows. The rats' epileptic seizure activity was continuously monitored for 3 hours, and epileptic behavior was scored according to the 1972 Racine scale. […]
Statistical analysis is as follows. […] Data are expressed as mean±standard error (SEM). Statistical significance was determined by one-way analysis of variation (ANOVA), combined with Bonferroni's post hoc test, and a p-value less than 0.05 was used as the criterion for significant differences.
The rats were pretreated either with normal saline (control), or CYN (0.5-25 mg/kg/day, p.o.), or CBZ (50 or 100 mg/kg/day, p.o.) or CYN 5 mg/kg/day+CBZ 50 mg/kg/day (p.o.) for 7 days before KA injection (15 mg/kg, i.p.). […] Data are expressed as mean±SEM. […]

Question: `O=C(/C=C/c1ccc(O)c(O)c1)O[C@@H]1C[C@@](OC(=O)/C=C/c2ccc(O)c(O)c2)(C(=O)O)C[C@@H](O)[C@@H]1O` [CYN, Cynarin] was tested. Which “KA-induced reduction of the number of hippocampal CA1/CA3 nerve cells (NeuN-positive cells)” value [1] did it give?
Answer: The value was “can also be reduced”.

Question: What about the “effect on KA-induced epilepsy (seizure score and latency)” value ([2]; CYN 0.5 mg/kg/day p.o. for 7 days before KA 15 mg/kg i.p., rats observed 3 h) of the same compound?
Answer: The value was “did not affect the epilepsy induced by KA”.

Question: And the “inhibitory effect on epileptic seizure behavior” value ([2]; CYN 10 mg/kg/day p.o. for 7 days before KA 15 mg/kg i.p., compared with CYN 5 and 25 mg/kg, equivalent to CBZ 100 mg/kg)?
Answer: The value was “strongest inhibitory effect on epileptic seizure behavior in animals”.

Reference: patent US20250302791A1, “METHOD FOR TREATING AND/OR PREVENTING EPILEPSY AND REDUCING SIDE EFFECT OF ANTI-EPILEPTIC DRUG BY USING CYNARIN” (FU JEN CATHOLIC UNIVERSITY, priority 2024, published 2025)
